Experimental data reported in patent US6479488B1, “Tetrahydroquinoline derivatives as EAA antagonists” (Glaxo Wellcome SpA, priority 1996, dated 2002).

Legend:
[1] = target: T1, strychnine insensitive glycine binding site located on the NMDA receptor complex (Rattus norvegicus, UniProt P35439); assay: Affinity for strychnine insensitive glycine binding site (procedure of Kishimoto et al.)
T1 construct: from tissue
Protocol: The potent and selective action of the compound of the invention at the strychnine-insensitive glycine binding site present on the NMDA receptor complex may be readily determined using conventional test procedures. Thus the ability to bind at the strychnine insensitive glycine binding site was determined using the procedure of Kishimoto H et al. J Neurochem 1981, 37 1015-1024. The selectivity of the action of compounds of the invention for the strychnine insensitive glycine site was confirmed in studies at other ionotropic known excitatory amino acid receptors.
The affinity of a compound of the invention for strychnine insensitive glycine binding site located on the NMDA receptor complex was determined using the procedure of Kishimoto H. et al J. Neurochem 1981, 37, 1015-1024.

[2] = tested on: generalized seizures induced by an intracerebroventicular injection of NMDA; assay: Inhibition of NMDA induced convulsions in the mouse (procedure of Chiamulera et al.); format: in vivo; conditions: mice, iv, 0.1 mg/kg dose, NMDA icv induced generalized seizures
Protocol: The ability of compounds of the invention to inhibit NMDA induced convulsions in the mouse was determined using the procedure of Chiamulera C et al. Psychopharmacology 1990, 102, 551-552. In this test the ability of the compound when administered iv to inhibit the generalized seizures induced by an intracerebroventicular injection of NMDA in mice was examined at 0.1 mg/kgdose.
The results as percent (%) of inhibition at 0.1 mg/kg dose for representative compounds are given below: […]

Compound | Ki [1] | % of inhibition [2]
N#CCc1ccc(NC(=O)/C=C2\CC(C(=O)O)Nc3cc(Cl)cc(Cl)c32)cc1 (racemic) [Example 5, (+/−)(E)-5,7-Dichloro-4-(4-cyanomethyl-phenylcarbamoylmethylene)-1,2,3,4-tetrahydro-quinoline-2-carboxylic Acid] | 7.94 nM | –
CC(C)C(=O)NCCOc1ccc(NC(=O)C=C2CC(C(=O)O)Nc3cc(Cl)cc(Cl)c32)cc1 (racemic) [Example 6, (+/−)(E)-5,7-Dichloro-4-[4-(2-isobutyrylamino-ethoxy)-phenylcarbamoylmethylene]-1,2,3,4-tetrahydro-guinoline-2-carboxylic Acid] | 15.8 nM | 40%
CC(C)C(=O)NCC(=O)Nc1ccc(NC(=O)/C=C2\CC(C(=O)[O-])Nc3cc(Cl)cc(Cl)c32)cc1.[Na+] (racemic) [Example 9, (+/−)(E)-5,7-Dichloro-4-(4-isobutyrylaminomethylcarbonylamino-phenylcarbamoylmethylene)-1,2,3,4-tetrahydro-quinoline-2-carboxylic Acid Sodium Salt] | 7.94 nM | 40%

The remaining molecules from weak to strong by Ki [1], led by results:

Ki [1] | Compound | % of inhibition [2]
63.1 nM | O=C(C=C1CC(C(=O)O)Nc2cc(Cl)cc(Cl)c21)Nc1ccc(OCCN2CCOCC2)cc1 (racemic) [Example 4, (+/−)(E)-5,7-Dichloro-4-[4-(2-morpholin-4-yl-ethoxy)-phenylcarbamoylmethylene]-1,2,3,4-tetrahydro-guinoline-2-carboxylic Acid] | –
7.94 nM | NC(=O)C=Cc1ccc(NC(=O)C=C2CC(C(=O)O)Nc3cc(Cl)cc(Cl)c32)cc1 (racemic) [Example 3, (+/−(E,E)-4-[4-(2-Carbamoyl-vinyl)-phenylcarbamoylmethylene]-5,7-dichloro-1,2,3,4-tetrahydro-quinoline-2-carboxylic Acid] | 40%
6.31 nM | COCC(=O)Nc1ccc(NC(=O)C=C2CC(C(=O)O)Nc3cc(Cl)cc(Cl)c32)cc1 (racemic) [Example 7, (+/−)(E)-5,7-Dichloro-4-[4-(2-methoxy-acetylamino)-phenylcarbamoylmethylene-1,2,3,4-tetrahydro-quinoline-2-carboxylic Acid] | 40%
